Patent US9266870B2 (TAISHO PHARMACEUTICAL CO., LTD., priority 2012, dated 2016)
Like-named read-outs stand apart in the source and are kept apart here.

Key:
[1] = target: human orexin-1 receptor (hOX1R) (Homo sapiens (Human), UniProt O43613); test: Measurement of orexin antagonistic activity (intracellular Ca2+ fluorescence, FDSS), hOX1R; assay type: cell-based; settings: ligand peptide (modified human orexin-A) 300 pM, maximum fluorescence intensity
Experimental: (§1) Chinese hamster ovary (CHO) cells forcibly expressing the hOX1R and hOX2R were seeded into a 96 well Black clear bottom plate (Nunc) at 20,000 cells per well, which were cultured in Ham's F-12 medium containing 0.1 mM MEM non-essential amino acids, 0.5 mg/ml G418, 10% fetal bovine serum (all by Invitrogen) for 16 hours under the conditions of 37° C., 5% CO2. After removing the medium, 100 μL of 0.5 μM Fluo-4AM ester (Dojin) in an assay buffer (25 mM HEPES (Dojin), Hank's balanced salt solution (Invitrogen), 0.1% bovine serum albumin, 2.5 mM probenecid, 200 μg/ml Amaranth (all by Sigma-Aldrich), pH 7.4) was added and the cells were incubated for 60 minutes at 37° C., 5% CO2. After removing the assay buffer containing fluo-3AM ester, the test compound was dissolved in dimethyl sulfoxide to be 10 mM and diluted with the assay buffer, 150 μL of which was added and incubated for 30 minutes.
(§2) The reaction was measured for the fluorescence intensity of each well every second for 3 minutes using Functional Drug Screening System (FDSS; Hamamatsu Photonics K.K.), and the antagonistic activity was determined using the maximum fluorescence intensity as the indicator of intracellular Ca2+ concentration.

[2] = target: human orexin-2 receptor (hOX2R) (Homo sapiens (Human), UniProt O43614); test: Measurement of orexin antagonistic activity (intracellular Ca2+ fluorescence, FDSS), hOX2R; assay type: cell-based; settings: CHO cells forcibly expressing hOX2R; ligand peptide (modified human orexin-A) 3 nM; maximum fluorescence intensity; read-out: IC50 Value OX2
Experimental: as §1, with “The antagonistic activities of the test compounds on human orexin-1 receptor (hOX1R) and orexin-2 receptor (hOX2R) were measured by modifying from the method described in literature (Toshikatsu Okumura et al., Biochemical and Biophysical Research Communications 280, 976-981, 2001). Chinese” for “Chinese”
as §2

[3] = CHO cells forcibly expressing hOX1R, read-out: IC50 Value OX1

human orexin-1 receptor (hOX1R), sequence (O43613 whole entry): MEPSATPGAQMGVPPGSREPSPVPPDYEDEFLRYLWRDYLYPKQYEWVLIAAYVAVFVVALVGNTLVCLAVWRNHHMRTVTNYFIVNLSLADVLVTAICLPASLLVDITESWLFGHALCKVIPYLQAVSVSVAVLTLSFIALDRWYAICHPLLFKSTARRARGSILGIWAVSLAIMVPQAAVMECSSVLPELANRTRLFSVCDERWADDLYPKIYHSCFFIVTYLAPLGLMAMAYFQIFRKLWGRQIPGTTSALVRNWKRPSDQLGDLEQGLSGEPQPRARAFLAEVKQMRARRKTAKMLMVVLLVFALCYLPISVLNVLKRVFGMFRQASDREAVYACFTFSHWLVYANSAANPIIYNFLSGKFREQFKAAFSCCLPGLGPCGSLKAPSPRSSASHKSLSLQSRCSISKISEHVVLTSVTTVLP
human orexin-2 receptor (hOX2R), sequence (O43614 whole entry): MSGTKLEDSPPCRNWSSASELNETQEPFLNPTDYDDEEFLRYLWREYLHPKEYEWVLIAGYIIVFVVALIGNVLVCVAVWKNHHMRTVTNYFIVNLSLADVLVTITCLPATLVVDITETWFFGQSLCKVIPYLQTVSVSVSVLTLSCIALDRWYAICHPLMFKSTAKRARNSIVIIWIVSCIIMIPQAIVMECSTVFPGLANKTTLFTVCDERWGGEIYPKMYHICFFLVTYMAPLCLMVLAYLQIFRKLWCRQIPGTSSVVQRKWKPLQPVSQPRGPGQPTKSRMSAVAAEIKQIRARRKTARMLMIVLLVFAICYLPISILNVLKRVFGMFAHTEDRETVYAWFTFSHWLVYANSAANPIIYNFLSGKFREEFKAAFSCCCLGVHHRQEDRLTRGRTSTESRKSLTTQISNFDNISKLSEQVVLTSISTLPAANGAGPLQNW

Row | SMILES | IC50 [1, 3] [nM] | IC50 [2] [nM] | IC50 ([1]; IC50 Value OX1, CHO cells forcibly expressing hOX1R) [nM]
1 | O=C(c1ccccc1-n1nccn1)N1CCOC1Cn1ccc(-c2ccc(F)cn2)n1 (racemic) [Example 11, (±)-(2-{[3-(5-Fluoropyridin-2-yl)-1H-pyrazol-1-yl]methyl}-1,3-oxazolidin-3-yl)[2-(2H-1,2,3-triazol-2-yl)phenyl]methanone] | 17.5 | 252 | –
2 | O=C(c1cc(F)ccc1-n1nccn1)N1CCOC1Cn1ccc(-c2ccc(F)cn2)n1 (racemic) [Example 12, (±)-(2-[[3-(5-fluoropyridin-2-yl)-1H-pyrazol-1-yl]methyl]-1,3-oxazolidin-3-yl) [5-fluoro-2-(2H-l,2,3-triazol-2-yl)phenyl]methanone] | – | 171 | –
3 | Cc1ccc(-n2nccn2)c(C(=O)N2CCOC2Cn2ccc(-c3ccc(F)cn3)n2)n1 (racemic) [Example 13, (±)-(2-[[3-(5-fluoropyridin-2-yl)-1H-pyrazol-1-yl]methyl]-1,3-oxazolidin-3-yl) [6-methyl-3-(2H-l,2,3-triazol-2-yl)pyridin-2-yl] methanone] | 121 | 251 | –
4 | O=C(c1cc(F)ccc1-c1ncccn1)N1CCOC1Cn1ccc(-c2ccc(F)cn2)n1 (racemic) [Example 16, (±)-(2-[[3-(5-fluoropyridin-2-yl)-1H-pyrazol-1-yl]methyl]-1,3-oxazolidin-3-yl) [5-fluoro-2-(pyrimidin-2-yl)phenyl]methanone] | 28.9 | 71.7 | –
5 | Cc1ccc(-n2nccn2)c(C(=O)N2CCOC2Cn2ccc(-c3ccc(F)cc3)n2)c1 (racemic) [Example 17, (±)-(2-[[3-(4-fluorophenyl)-1H-pyrazol-1-yl]methyl]-1,3-oxazolidin-3-yl)[5-methyl-2-2H-1,2,3-triazol-2-yl) phenyl]methanone] | 5.1 | – | –
6 | O=C(c1ccccc1-n1nccn1)N1CCOC1Cn1ccc(-c2ccc(F)cc2)n1 (racemic) [Example 18, (±)-(2-[[3-(4-fluorophenyl)-1H-pyrazol-1-yl]methyl]-1,3-oxazolidin-3-yl)[2-(2H-1,2,3-triazol-2-yl)phenyl] methanone] | 26.4 | 192 | –
7 | O=C(c1cc(F)ccc1-n1nccn1)N1CCOC1Cn1ccc(-c2ccc(F)cc2)n1 (racemic) [Example 19, (±)-(2-[[3-(4-fluorophenyl)-1H-pyrazol-1-yl]methyl]-1,3-oxazolidin-3-yl)[5-fluoro-2-(2H-1,2,3-triazol-2-yl)phenyl]methanone] | 76.8 | 233 | –
8 | Cc1ccc(-c2ncccn2)c(C(=O)N2CCOC2Cn2ccc(-c3ccc(F)cc3)n2)c1 (racemic) [Example 20, (±)-(2-[[3-(4-fluorophenyl)-1H-pyrazol-1-yl]methyl]-1,3-oxazolidin-3-yl)[5-methyl-2-(pyrimidin-2-yl)phenyl]methanone] | 12.3 | 101 | –
9 | O=C(c1cc(F)ccc1-c1ncccn1)N1CCOC1Cn1ccc(-c2ccc(F)cc2)n1 (racemic) [Example 21] | 30.2 | 234 | –
10 | Cc1ccc(-n2nccn2)c(C(=O)N2CCOC2Cn2cc(-c3ccc(F)cc3)cn2)n1 (racemic) [Example 23, (±)-(2-[[4-(4-fluorophenyl)-1H-pyrazol-1-yl]methyl]-1,3-oxazolidin-3-yl)[6-methyl-3-(2H-1,2,3-triazol-2-yl)pyridin-2-yl]methanone] | 96.3 | 112 | –
11 | Cc1ccc(-c2ncccn2)c(C(=O)N2CCOC2Cn2cc(-c3ccc(F)cc3)cn2)c1 (racemic) [Example 24, (±)-(2-[[4-(4-fluorophenyl)-1H-pyrazol-1-yl]methyl]-1,3-oxazolidin-3-yl)[5-methyl-2-(pyrimidin-2-yl)phenyl]methanone] | – | 26.7 | –
12 | Cc1ccc(-n2nccn2)c(C(=O)N2CCOC2Cn2ccc(-c3ccc(F)cn3)n2)c1 (single isomer, unassigned; (-)) [Example 1, (−)-(2-{[3-(5-Fluoropyridin-2-yl)-1H-pyrazol-1-yl]methyl}-1,3-oxazolidin-3-yl)[5-methyl-2-(2H-1,2,3-triazol-2-yl)phenyl]methanone] | 4.9 | – | –
13 | Cc1ccc(-n2nccn2)c(C(=O)N2CCCOC2Cn2cc(-c3ccc(F)cn3)cn2)c1 (single isomer, unassigned; (-)) [Example 4, (−)-(2-[[4-(5-fluoropyridin-2-yl)-1H-pyrazol-1-yl]-methyl]-1,3-oxazinan-3-yl)[5-methyl-2-(2H-1,2,3-triazol-2-yl)phenyl] methanone] | 9.6 | – | –
14 | Cc1ccc(-n2nccn2)c(C(=O)N2CCCOC2Cn2cc(-c3ccc(F)cc3)cn2)c1 (single isomer, unassigned; (-)) [Example 35, (−)-[2-[[4-(4-fluorophenyl)-1H-pyrazol-1-yl]methyl]-1,3-oxazinan-3-yl][5-methyl-2-(2H-1,2,3-triazol-2-yl)phenyl]methanone] | – | – | 0.8
15 | Cc1ccc(-n2nccn2)c(C(=O)N2CC(C)COC2Cn2cc(-c3ccc(F)cn3)cn2)c1 (single isomer, unassigned; (-)) [Example 40, (−)-[(2S*,5S*)-2-{[4-(5-Fluoropyridin-2-yl)-1H-pyrazol-1-yl]methyl}-5-methyl-1,3-oxazinan-3-yl][5-methyl-2-(2H-1,2,3-triazol-2-yl)phenyl]methanone] | 8.3 | – | –
16 | Cc1ccc(-c2ncccn2)c(C(=O)N2CCCOC2Cn2cc(-c3ccc(F)cc3)cn2)c1 (single isomer, unassigned; (-)) [Example 43, (−)-[2-[[4-(4-fluorophenyl)-1H-pyrazol-1-yl]methyl]-1,3-oxazinan-3-yl][5-methyl-2-(pyrimidin-2-yl)phenyl]methanone] | 2.6 | – | –
17 | O=C(c1cc(F)ccc1-c1ncccn1)N1CCCOC1Cc1cnn(-c2ccc(F)cn2)c1 (single isomer, unassigned; (-)) [Example 44, (−)-[2-[[1-(5-fluoropyridin-2-yl)-1H-pyrazol-4-yl]methyl]-1,3-oxazinan-3-yl] [5-fluoro-2-(pyrimidin-2-yl)phenyl]methanone] | 60.4 | – | –
18 | Cc1ccc(-n2nccn2)c(C(=O)N2CCCOC2Cc2cnn(-c3ccc(F)cn3)c2)c1 (single isomer, unassigned; (-)) [Example 47, (−)-[2-{[1-(5-Fluoropyridin-2-yl)-1H-pyrazol-4-yl]methyl}-1,3-oxazinan-3-yl][5-methyl-2-(2H-1,2,3-triazol-2-yl)phenyl]methanone] | 3.4 | – | –
19 | Cc1ccc(-n2nccn2)c(C(=O)N2CC(C)COC2Cn2cc(-c3ccc(F)cn3)cn2)c1 (single isomer, unassigned; (-)) [Example 49, (−)-[(2S*,5R*)-2-{[4-(5-Fluoropyridin-2-yl)-1H-pyrazol-1-yl]methyl}-5-methyl-1,3-oxazinan-3-yl][5-methyl-2-(2H-1,2,3-triazol-2-yl)phenyl]methanone] | 0.8 | – | –
20 | Cc1ccc(-n2nccn2)c(C(=O)N2C[C@H](C)O[C@H]2Cn2cc(-c3ccc(F)cn3)cn2)c1 [Example 5, (−)-[(2S,5S)-2-{[4-(5-Fluoropyridin-2-yl)-1H-pyrazol-1-yl]methyl}-5-methyl-1,3-oxazolidin-3-yl][5-methyl-2-(2H-1,2,3-triazol-2-yl)phenyl]methanone] | 86 | – | –
21 | Cc1ccc(-n2nccn2)c(C(=O)N2C[C@@H](C)O[C@H]2Cn2cc(-c3ccc(F)cn3)cn2)c1 [Example 6, (−)-[(2S,5R)-2-[[4-(5-fluoropyridin-2-yl)-1H-pyrazol-1-yl]methyl]-5-methyl-1,3-oxazolidin-3-yl] [5-methyl-2-(2H-1,2,3-triazol-2-yl)phenyl] methanone] | 27.5 | – | –
22 | Cc1ccc(-n2nccn2)c(C(=O)N2[C@H](C)CO[C@H]2Cn2ccc(-c3ccc(F)cn3)n2)c1 [Example 7, [(2S,4R)-2-[[3-(5-fluoropyridin-2-yl)-1H-pyrazol-1-yl]-methyl]-4-methyl-1,3-oxazolidin-3-yl] [5-methyl-2-(2H-1,2,3-triazol-2-yl)phenyl] methanone] | 7.2 | – | –
23 | Cc1ccc(-n2nccn2)c(C(=O)N2[C@H](Cn3ccc(-c4ccc(F)cn4)n3)OC[C@@H]2C)c1 [Example 9, (−)-[(2S,4S)-2-[[3-(5-fluoropyridin-2-yl)-1H-pyrazol-1-yl]-methyl]-4-methyl-1,3-oxazolidin-3-yl] [5-methyl-2-(2H-1,2,3-triazol-2-yl)phenyl] methanone] | 23.4 | – | –
